One experiment deals with T1, HiBit-BRG1 (Homo sapiens, UniProt P51532).
T1 construct: expressed in transfected cells
Briefly: HiBit-BRG1 cell-based degradation assay (Nano-Glo HiBiT Lytic Detection). The conditions noted are these: HeLa cells expressing HiBit-BRG1 and LgBit, 24 h; for DC50: read-out: BRG1 HiBit Degradation IC50; for Dmax: read-out: BRG1 HiBit Degradation Maximum (%). How it is done:
(§1) Procedure: A stable HeLa cell line expressing HiBiT-BRM was generated. On day 0, 5000 cells were seeded in 40 μL of media into each well of 384-well cell culture plates. […] Subsequently plates were incubated for 24 h in a standard tissue culture incubator and equilibrated at room temperature for 15 minutes. Nano-Glo HiBiT Lytic Detection System (Promega N3050) reagent was freshly prepared and 20 ul was added to each well. Upon addition of this LgBit-containing reagent, the HiBiT and LgBiT proteins associate to form the luminescent NanoBiT luciferase. The plates were shaken for 10 minutes at room temperature and the bioluminescence read using an EnVision plate reader (PerkinElmer).
For measurement of BRG1 degradation, a stable HeLa cell line expressing HiBit-BRG1 and LgBit was generated. The same protocol as above was then followed.
(§2) The degradation % was calculated using the following formula: % degradation=100%−100%×(LumSample−LumLC)/(LumHC−LumLC). DMSO treated cells are employed as High Control (HC) and 2 μM of a known BRM/BRG1 degrader standard treated cells are employed as Low Control (LC).

In a further experiment the target is T2, HiBiT-BRM (Homo sapiens, UniProt P51531).
T2 construct: expressed in transfected cells
Nature of the experiment: HiBiT-BRM cell-based degradation assay (Nano-Glo HiBiT Lytic Detection). The note with it: HeLa cells expressing HiBiT-BRM, 24 h; for DC50: read-out: BRM HiBit Degradation IC50. How it is done:
as §1, §2

T2 sequence (P51531 whole entry): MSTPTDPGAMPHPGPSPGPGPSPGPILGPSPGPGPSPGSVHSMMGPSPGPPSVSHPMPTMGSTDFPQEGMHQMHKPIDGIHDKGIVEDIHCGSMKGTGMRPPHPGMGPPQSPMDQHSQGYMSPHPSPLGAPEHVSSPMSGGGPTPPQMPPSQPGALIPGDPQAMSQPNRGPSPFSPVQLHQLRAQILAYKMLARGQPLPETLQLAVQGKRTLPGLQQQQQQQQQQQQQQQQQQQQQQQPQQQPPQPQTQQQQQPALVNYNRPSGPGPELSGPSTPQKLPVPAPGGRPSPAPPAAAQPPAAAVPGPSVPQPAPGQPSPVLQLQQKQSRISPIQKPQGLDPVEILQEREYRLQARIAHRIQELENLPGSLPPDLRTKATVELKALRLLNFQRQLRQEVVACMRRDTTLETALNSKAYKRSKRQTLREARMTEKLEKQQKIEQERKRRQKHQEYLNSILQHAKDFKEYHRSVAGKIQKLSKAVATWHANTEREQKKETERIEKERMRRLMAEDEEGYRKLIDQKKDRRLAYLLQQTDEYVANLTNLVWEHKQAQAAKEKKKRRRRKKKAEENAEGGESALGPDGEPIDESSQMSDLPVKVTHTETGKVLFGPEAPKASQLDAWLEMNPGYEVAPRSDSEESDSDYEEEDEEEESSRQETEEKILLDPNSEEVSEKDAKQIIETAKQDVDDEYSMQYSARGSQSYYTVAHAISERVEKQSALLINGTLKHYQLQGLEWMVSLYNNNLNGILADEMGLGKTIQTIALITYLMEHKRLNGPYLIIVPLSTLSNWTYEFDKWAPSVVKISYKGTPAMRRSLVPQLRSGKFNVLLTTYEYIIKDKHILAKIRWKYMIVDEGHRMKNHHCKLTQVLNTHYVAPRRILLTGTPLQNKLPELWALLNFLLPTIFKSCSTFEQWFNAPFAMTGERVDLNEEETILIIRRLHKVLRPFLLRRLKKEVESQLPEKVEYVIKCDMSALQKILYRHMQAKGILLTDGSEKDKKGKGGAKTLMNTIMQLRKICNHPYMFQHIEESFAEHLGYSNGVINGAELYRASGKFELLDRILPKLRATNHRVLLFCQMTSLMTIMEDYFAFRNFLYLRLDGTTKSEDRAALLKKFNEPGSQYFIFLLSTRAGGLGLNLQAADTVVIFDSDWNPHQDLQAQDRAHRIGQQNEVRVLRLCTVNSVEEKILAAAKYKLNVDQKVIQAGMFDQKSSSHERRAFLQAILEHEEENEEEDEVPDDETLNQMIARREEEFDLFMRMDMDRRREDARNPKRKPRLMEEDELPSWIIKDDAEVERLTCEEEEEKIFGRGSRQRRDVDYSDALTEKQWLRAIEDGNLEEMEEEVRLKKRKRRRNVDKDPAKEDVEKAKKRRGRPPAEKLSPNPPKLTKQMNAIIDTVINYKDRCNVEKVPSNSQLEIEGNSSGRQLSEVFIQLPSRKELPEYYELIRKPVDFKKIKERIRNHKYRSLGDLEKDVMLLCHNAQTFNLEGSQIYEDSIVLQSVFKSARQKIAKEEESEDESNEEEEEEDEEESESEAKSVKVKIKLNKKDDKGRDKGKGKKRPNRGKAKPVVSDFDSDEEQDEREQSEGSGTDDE
T1 sequence (P51532 whole entry): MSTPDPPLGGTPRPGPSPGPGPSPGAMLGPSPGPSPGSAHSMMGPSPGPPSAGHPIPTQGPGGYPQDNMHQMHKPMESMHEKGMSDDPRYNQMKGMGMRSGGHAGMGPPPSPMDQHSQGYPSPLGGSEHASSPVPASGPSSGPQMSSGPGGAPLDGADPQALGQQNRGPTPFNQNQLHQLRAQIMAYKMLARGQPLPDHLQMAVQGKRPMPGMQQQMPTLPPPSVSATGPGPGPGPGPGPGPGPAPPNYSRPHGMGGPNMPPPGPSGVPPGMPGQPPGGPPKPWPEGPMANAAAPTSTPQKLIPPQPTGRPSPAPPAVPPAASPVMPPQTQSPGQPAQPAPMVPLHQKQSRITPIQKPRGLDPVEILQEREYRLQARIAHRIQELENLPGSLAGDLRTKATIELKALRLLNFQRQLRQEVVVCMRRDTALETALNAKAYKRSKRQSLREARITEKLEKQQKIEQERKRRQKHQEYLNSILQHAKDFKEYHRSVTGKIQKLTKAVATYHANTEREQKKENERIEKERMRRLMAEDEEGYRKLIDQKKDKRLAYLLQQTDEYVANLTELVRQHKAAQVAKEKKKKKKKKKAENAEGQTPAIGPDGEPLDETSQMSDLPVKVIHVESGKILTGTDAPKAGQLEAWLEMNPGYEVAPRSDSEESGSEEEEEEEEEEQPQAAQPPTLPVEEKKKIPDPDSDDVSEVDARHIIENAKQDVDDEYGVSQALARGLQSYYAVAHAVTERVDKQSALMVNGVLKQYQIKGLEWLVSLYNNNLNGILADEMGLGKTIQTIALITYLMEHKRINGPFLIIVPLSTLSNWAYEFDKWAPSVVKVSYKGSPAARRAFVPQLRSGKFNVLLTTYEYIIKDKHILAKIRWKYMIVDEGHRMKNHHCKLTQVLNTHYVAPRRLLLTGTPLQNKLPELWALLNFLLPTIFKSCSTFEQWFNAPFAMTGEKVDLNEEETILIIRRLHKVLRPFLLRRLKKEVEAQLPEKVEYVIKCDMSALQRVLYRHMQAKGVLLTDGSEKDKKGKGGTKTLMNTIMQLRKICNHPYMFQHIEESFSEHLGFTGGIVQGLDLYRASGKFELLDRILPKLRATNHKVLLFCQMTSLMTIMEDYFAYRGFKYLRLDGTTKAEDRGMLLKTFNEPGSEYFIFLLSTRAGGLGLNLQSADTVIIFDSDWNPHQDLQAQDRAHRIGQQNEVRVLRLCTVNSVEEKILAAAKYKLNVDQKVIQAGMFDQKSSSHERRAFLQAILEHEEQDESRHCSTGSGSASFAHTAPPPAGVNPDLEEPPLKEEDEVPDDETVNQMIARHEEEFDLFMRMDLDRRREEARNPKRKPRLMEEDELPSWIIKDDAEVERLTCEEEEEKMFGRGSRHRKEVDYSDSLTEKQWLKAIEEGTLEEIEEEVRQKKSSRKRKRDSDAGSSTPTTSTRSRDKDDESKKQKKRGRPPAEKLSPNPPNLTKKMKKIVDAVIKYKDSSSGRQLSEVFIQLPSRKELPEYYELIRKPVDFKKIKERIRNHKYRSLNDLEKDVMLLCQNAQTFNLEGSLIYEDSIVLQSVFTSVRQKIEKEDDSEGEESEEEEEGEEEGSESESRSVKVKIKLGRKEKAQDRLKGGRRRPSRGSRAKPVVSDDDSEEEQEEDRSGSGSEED

As to `Cc1ncsc1-c1ccc([C@H](C)NC(=O)[C@@H]2C[C@@H](O)CN2C(=O)[C@@H](c2cc(OCCN(C)Cc3ccc(CCOc4cc(-c5ccccc5O)nnc4N)cc3)no2)C(C)C)cc1` [Compound 251, (2S,4R)-1-((R)-2-(3-(2-((4-(2-((3-amino-6-(2-hydroxyphenyl)pyridazin-4-yl)oxy)ethyl)benzyl)(methyl)amino)ethoxy)isoxazol-5-yl)-3-methylbutanoyl)-4-hydroxy-N-((S)-1-(4-(4-methylthiazol-5-yl)phenyl)ethyl)pyrrolidine-2-carboxamide], at HiBit-BRG1, the DC50 is < 10 nM and the Dmax was > 75%. In addition, at HiBiT-BRM, the “BRM HiBit Degradation Maximum (%)” value is “A (“A” indicates maximum degradation ≥75%)” and the DC50 is < 10 nM.
On to `Cc1ncsc1-c1ccc(CNC(=O)[C@@H]2C[C@@H](O)CN2C(=O)[C@@H](NC(=O)CCCOCCOCCNC(=O)c2ccc(CCOc3cc(-c4ccccc4O)nnc3N)cc2)C(C)(C)C)cc1` [Compound 24, (2S,4R)-1-[(2S)-2-[4-[2-(2-[[4-(2-[[3-amino-6-(2-hydroxyphenyl)pyridazin-4-yl]oxy]ethyl)phenyl]formamido]ethoxy)ethoxy]butanamido]-3,3-dimethylbutanoyl]-4-hydroxy-N-[[4-(4-methyl-1,3-thiazol-5-yl)phenyl]methyl]pyrrolidine-2-carboxamide], for which, at HiBit-BRG1, the DC50 was > 1000 nM and the Dmax was < 50%. On HiBiT-BRM, the “BRM HiBit Degradation Maximum (%)” value is “C (“C” indicates maximum degradation <50%)” and the DC50 was > 1000 nM.
On to `Nc1nnc(-c2ccccc2O)cc1N1CCN(CC(=O)N2CC(COc3cccc4c3C(=O)N(C3CCC(=O)NC3=O)C4=O)C2)CC1` (stereo not shown) [Compound 76, 4-[[1-(2-[4-[3-amino-6-(2-hydroxyphenyl)pyridazin-4-yl]piperazin-1-yl]acetyl)azetidin-3-yl]methoxy]-2-(2,6-dioxopiperidin-3-yl)isoindole-1,3-dione], for which, on HiBit-BRG1, the DC50 was > 1000 nM and the Dmax is < 50%. On HiBiT-BRM, the “BRM HiBit Degradation Maximum (%)” value is recorded as “C (“C” indicates maximum degradation <50%)” and the DC50 was > 1000 nM.
Consider `Nc1nnc(-c2ccccc2O)cc1NCCc1ccc(CNC(=O)CCCCNc2cccc3nnn(C4CCC(=O)NC4=O)c(=O)c23)cc1` (stereo not shown) [Compound 141, N-(4-(2-((3-amino-6-(2-hydroxyphenyl)pyridazin-4-yl)amino)ethyl)benzyl)-5-((3-(2,6-dioxopiperidin-3-yl)-4-oxo-3,4-dihydrobenzo[d][1,2,3]triazin-5-yl)amino)pentanamide], for which, on HiBit-BRG1, the DC50 is > 1000 nM and the Dmax was < 50%. Also, at HiBiT-BRM, the “BRM HiBit Degradation Maximum (%)” value is recorded as “C (“C” indicates maximum degradation <50%)” and the DC50 was > 1000 nM.
Regarding `Cc1ncsc1-c1ccc([C@H](C)NC(=O)[C@@H]2C[C@@H](O)CN2C(=O)[C@@H](c2cc(OCCN3CC4(C3)CN(CC(=O)NCc3ccc(CCOc5cc(-c6ccccc6O)nnc5N)cc3)C4)no2)C(C)C)cc1` [Compound 191, (2S,4R)-1-[(2R)-2-[3-(2-[6-[([[4-(2-[[3-amino-6-(2-hydroxyphenyl)pyridazin-4-yl]oxy]ethyl)phenyl]methyl]carbamoyl)methyl]-2,6-diazaspiro[3.3]heptan-2-yl]ethoxy)-1,2-oxazol-5-yl]-3-methylbutanoyl]-4-hydroxy-N-[(1S)-1-[4-(4-methyl-1,3-thiazol-5-yl)phenyl]ethyl]pyrrolidine-2-carboxamide], on HiBit-BRG1, the DC50 is > 1000 nM and the Dmax is > 75%. Moreover, on HiBiT-BRM, the “BRM HiBit Degradation Maximum (%)” value was “A (“A” indicates maximum degradation ≥75%)” and the DC50 was > 100 nM.
In the same order, the values of `CCN(CCc1ccc(C(=O)NCCCCCCCCCC(=O)N[C@H](C(=O)N2C[C@H](O)C[C@H]2C(=O)NCc2ccc(-c3scnc3C)cc2)C(C)(C)C)cc1)c1cc(-c2ccccc2O)nnc1N` (racemic) [Compound 144, (2S,4R)-1-((S)-2-(10-(4-(2-((3-amino-6-(2-hydroxyphenyl)pyridazin-4-yl)(ethyl)amino)ethyl)benzamido)decanamido)-3,3-dimethylbutanoyl)-4-hydroxy-N-(4-(4-methylthiazol-5-yl)benzyl)pyrrolidine-2-carboxamide] are > 1000 nM, < 50%, “A (“A” indicates maximum degradation ≥75%)” and > 100 nM.
Turning to `Cc1ncsc1-c1ccc([C@H](C)NC(=O)[C@@H]2C[C@@H](O)CN2C(=O)[C@@H](c2cc(OCCNCCC(=O)NCc3ccc(CCOc4cc(-c5ccccc5O)nnc4N)cc3)no2)C(C)C)cc1` [Compound 230, (2S,4R)-1-((R)-2-(3-(2-((3-((4-(2-((3-amino-6-(2-hydroxyphenyl)pyridazin-4-yl)oxy)ethyl)benzyl)amino)-3-oxopropyl)amino)ethoxy)isoxazol-5-yl)-3-methylbutanoyl)-4-hydroxy-N-((S)-1-(4-(4-methylthiazol-5-yl)phenyl)ethyl)pyrrolidine-2-carboxamide], on HiBit-BRG1, the DC50 was > 1000 nM and the Dmax was > 75%. For the same compound, at HiBiT-BRM, the “BRM HiBit Degradation Maximum (%)” value is on record as “A (“A” indicates maximum degradation ≥75%)” and the DC50 was > 100 nM.
With `Cc1ncsc1-c1ccc([C@H](C)NC(=O)[C@@H]2C[C@@H](O)CN2C(=O)[C@@H](NC(=O)CCCCCCCCCCCCCC(=O)N(C)Cc2ccc(CCOc3cc(-c4ccccc4O)nnc3N)cc2)C(C)(C)C)cc1` [Compound 197, N1-(4-(2-((3-amino-6-(2-hydroxyphenyl)pyridazin-4-yl)oxy)ethyl)benzyl)-N15-((S)-1-((2S,4R)-4-hydroxy-2-(((S)-1-(4-(4-methylthiazol-5-yl)phenyl)ethyl)carbamoyl)pyrrolidin-1-yl)-3,3-dimethyl-1-oxobutan-2-yl)-N1-methylpentadecanediamide], on HiBit-BRG1, the DC50 is > 1000 nM and the Dmax is < 50%. For the same compound, at HiBiT-BRM, the “BRM HiBit Degradation Maximum (%)” value was “A (“A” indicates maximum degradation ≥75%)” and the DC50 was > 10 nM.
The like results for `Cc1ncsc1-c1ccc(CNC(=O)[C@@H]2C[C@@H](O)CN2C(=O)[C@@H](NC(=O)CCCCCCCCCCCCCCCC(=O)NCc2ccc(CCOc3cc(-c4ccccc4O)nnc3N)cc2)C(C)C)cc1` [Compound 173, N1-(4-(2-((3-amino-6-(2-hydroxyphenyl)pyridazin-4-yl)oxy)ethyl)benzyl)-N17-((S)-1-((2S,4R)-4-hydroxy-2-((4-(4-methylthiazol-5-yl)benzyl)carbamoyl)pyrrolidin-1-yl)-3-methyl-1-oxobutan-2-yl)heptadecanediamide] were, in that order, > 1000 nM, < 50%, “B (“B” indicates maximum degradation ≥50%)” and > 100 nM.
Take `Nc1nnc(-c2ccccc2O)cc1OCCc1ccc(C(=O)NCCCCCC(=O)NCc2ccc(S(=O)(=O)Nc3cccc4c(Cl)c[nH]c34)cc2)cc1` [Compound 14, 6-[[4-(2-[[3-amino-6-(2-hydroxyphenyl)pyridazin-4-yl]oxy]ethyl)phenyl]formamido]-N-([4-[(3-chloro-1H-indol-7-yl)sulfamoyl]phenyl]methyl)hexanamide]: at HiBit-BRG1, the DC50 is > 1000 nM and the Dmax is < 50%. Also, on HiBiT-BRM, the “BRM HiBit Degradation Maximum (%)” value was “C (“C” indicates maximum degradation <50%)” and the DC50 is > 1000 nM.

These data come from US20230150974A1 (Foghorn Therapeutics Inc., priority 2020, published 2023).
